Measured values published in PubChem BioAssay (NCI).
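The compound was tested at five concentrations on cells cultured in 96-well plates, with a 48-hour exposure period. TGI: total growth inhibition.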

Experiments:
Assay in all cases: DTP human tumour cell line panel, 48 h
M19-MEL melanoma = test system: M19-MEL melanoma
DMS 273 small cell lung = test system: DMS 273 small cell lung
KM20L2 colon = test system: KM20L2 colon
DMS 114 small cell lung = test system: DMS 114 small cell lung

Measured: TGI

CCOC(=O)C(C#N)(Cc1c[nH]c2ccccc12)NC(C)=O (centres undefined)
> 100 µM: M19-MEL melanoma | DMS 273 small cell lung | KM20L2 colon | DMS 114 small cell lung
